Experimental data taken from the NIST ThermoML archive (doi:10.1016/j.fluid.2015.07.038).
± gives the expanded uncertainty stated by the source.

Conditions: Crystal; DTA

## COc1ccc2[nH]c(SCc3ncc(C)c(OC)c3C)nc2c1 [Omeprazole sulfide]
  Normal melting temperature: 119.00 ± 0.5 °C
